Data on 32 molecules can be found in patent publication US20110306597A1, “Nicotinamide Derivatives” (priority 2008, published 2011).

human recombinant H-PGDS, sequence (O60760 whole entry): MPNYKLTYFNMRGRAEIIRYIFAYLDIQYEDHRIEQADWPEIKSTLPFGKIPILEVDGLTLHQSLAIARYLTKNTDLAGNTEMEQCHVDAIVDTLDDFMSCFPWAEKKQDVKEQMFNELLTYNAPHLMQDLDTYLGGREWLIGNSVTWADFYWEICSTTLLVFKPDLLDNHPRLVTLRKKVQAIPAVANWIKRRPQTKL

The target in this experiment is human recombinant H-PGDS (Homo sapiens, UniProt O60760). Description: Fluorescence Intensity h-PGDS TBA Enzyme Assay. The experiment is classed as biochemical. The note with it: 1:175,000 human recombinant H-PGDS, highest inhibitor concentration typically 1 μM. The essentials:
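Recombinant human H-PGDS preincubated 10 min at room temperature with inhibitor in 100 mM Tris pH 8.0, 100 μM MgCl2, 2.5 mM glutathione, 0.5% DMSO; 5.0 μM PGH2 added, stopped after 42 s with FeCl2/citric acid. Remaining PGH2 measured as MDA–TBA fluorescence (ex 530/em 565 nm); IC50 by 4-parameter fit, 11 concentrations.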
Consider `CNS(=O)(=O)c1ccc(CNC(=O)c2ccc(-c3cccc(OC)c3)nc2)cc1` [Example 317, 6-(3-Methoxyphenyl)-N-{4-[(methylamino)sulfonyl]benzyl}nicotinamide], for which the IC50 is 153 nM.
With `Cc1cccc(-c2ccc(C(=O)NCCc3ccncc3)cn2)c1` [Example 240, 6-(3-Methylphenyl)-N-(2-pyridin-4-ylethyl)nicotinamide], the IC50 is 10.7 nM.
Consider `O=C(NCC1CCCN(C2CCOCC2)C1)c1ccc(-c2cccc(F)c2)nc1` (centres unmarked) [Example 110, 6-(3-Fluorophenyl)-N-{[1-(tetrahydro-2H-pyran-4-yl)piperidin-3-yl]methyl}nicotinamide], for which the IC50 is 87.1 nM.
Take `C[C@@H](NC(=O)c1ccc(-c2cccc(F)c2)nc1)[C@@H](O)c1ccccc1` [Example 81, 6-(3-Fluorophenyl)-N-[(1R,2S)-2-hydroxy-1-methyl-2-phenethyl]nicotinamide]: the IC50 is 41.2 nM.
As for `C[C@@H](CNC(=O)c1ccc(-c2cccc(F)c2)nc1)NC(=O)OCc1ccccc1` [Example 433, Benzyl [(1S)-2-({[6-(3-fluorophenyl)pyridin-3-yl]carbonyl}amino)-1-methylethyl]carbamate], the IC50 was found to be 33.7 nM.
In the case of `Cc1noc(C)c1CCCNC(=O)c1ccc(-c2cccc(F)c2)nc1` [Example 91, N-[3-(3,5-Dimethylisoxazol-4-yl)propyl]-6-(3-fluorophenyl)nicotinamide] it was 6.44 nM; in that of `Cc1cc(C)c(C#N)c(N2C[C@H](NC(=O)c3ccc(-c4cccc(F)c4)nc3)[C@@H](O)C2)n1` [Example 563, N-[(3S,4S)-1-(3-Cyano-4,6-dimethylpyridin-2-yl)-4-hydroxypyrrolidin-3-yl]-6-(3-fluorophenyl)nicotinamide], 5.15 nM.
`O=C(Nc1ccccc1)c1ccc(-c2cccc(F)c2)nc1` [Example 421, 6-(3-Fluorophenyl)-N-phenylnicotinamide]: the IC50 is 7.37 nM.
Consider `NC(CC(=O)NC(=O)c1ccc(-c2ccc(F)cc2)nc1)C1CC1` (centres unmarked) [Example 269, N-(3-Amino-3-cyclopropylpropanoyl)-6-(4-fluorophenyl)nicotinamide], for which the IC50 worked out at 672 nM.
`COC(=O)c1ccc(CNC(=O)c2ccc(-c3ccc(F)cc3)nc2)cc1` [Example 268, Methyl 4-[({[6-(4-fluorophenyl)pyridin-3-yl]carbonyl}amino)methyl benzoate]: the IC50 was 286 nM.
Consider `CN(C)C(=O)CNC(=O)c1ccc(-c2ccc(F)cc2)nc1` [Example 325, N-[2-(Dimethylamino)-2-oxoethyl]-6-(4-fluorophenyl)nicotinamide], for which the IC50 is at least 1000 nM.
Turning to `CC(C)c1cc(CNC(=O)c2ccc(-c3cccc(F)c3)nc2)on1` [Example 127, 6-(3-Fluorophenyl)-N-[(3-isopropylisoxazol-5-yl)methyl]nicotinamide], the IC50 was 30.3 nM.
With `O=C(NCC1COc2ccccc2C1)c1cnc(-c2cccc(F)c2)c(Cl)c1` (centres unmarked) [Example 547, 5-Chloro-N-(3,4-dihydro-2H-chromen-3-ylmethyl)-6-(3-fluorophenyl)nicotinamide], the IC50 was found to be 98.4 nM.
Regarding `O=C(N[C@@H]1C[C@H]2CC[C@@H](C1)N2C(=O)N1CCC(O)CC1)c1ccc(-c2cccc(F)c2)nc1` [Example 596, 6-(3-Fluorophenyl)-N-(3-exo)-8-[(4-hydroxypiperidin-1-ylcarbonyl]-8-azabicyclo[3.2.1]octyl-3-yl}nicotinamide], the IC50 is 11 nM.
For the molecule `COc1ccc(CNC(=O)c2ccc(-c3ccc(F)cc3)nc2)cc1` [Example 478, 6-(4-Fluorophenyl)-N-(4-methoxybenzyl)nicotinamide], the IC50 is 377 nM.
Take `Cc1cccc(-c2ccc(C(=O)NCc3ccccc3)cn2)c1` [Example 310, N-Benzyl-6-(3-methylphenyl)nicotinamide]: the IC50 was found to be 19.4 nM.
For the molecule `N#CC(NC(=O)c1ccc(-c2cccc(F)c2)nc1)C(=O)NCCN1CCOCC1` (centres unmarked) [Example 212, N-{1-Cyano-2-[(2-morpholin-4-ylethyl)amino]-2-oxoethyl}-6-(3-fluorophenyl)nicotinamide], the IC50 was found to be 297 nM.
In the case of `Cc1ccc2c(c1)C(NC(=O)c1ccc(-c3cc(F)cc(F)c3)nc1)CC(C)(C)O2` (centres unmarked) [Example 536, 6-(3,5-Difluorophenyl)-N-(2,2,6-trimethyl-3,4-dihydro-2H-chromen-4-yl)nicotinamide] it was 53.5 nM; in that of `Cc1ccccc1CNC(=O)c1ccc(-c2cc(F)cc(F)c2)nc1` [Example 541, 6-(3,5-Difluorophenyl)-N-(2-methylbenzyl)nicotinamide], 16.9 nM.
On to `CCN(CC)CCCCNC(=O)c1ccc(-c2cccc(F)c2)nc1` [Example 102, N-[4-(Diethylamino)butyl]-6-(3-fluorophenyl)nicotinamide], for which the IC50 came to 86.3 nM.
For `Cc1cccc(-c2ccc(C(=O)NCC(C)(C)CN(C)C)cn2)c1` [Example 242, N-[3-(Dimethylamino)-2,2-dimethylpropyl]-6-(3-methylphenyl)nicotinamide] the value was 300 nM.
Turning to `CC(NC(=O)c1ccc(-c2cccc(F)c2)nc1)c1ccccc1` (centres unmarked) [Example 423, 6-(3-Fluorophenyl)-N-(1-phenylethyl)nicotinamide], the IC50 is 8.76 nM.
For `Cc1cccc(-c2ccc(C(=O)NC3CCOC3=O)cn2)c1` (centres unmarked) [Example 250, 6-(3-Methylphenyl)-N-(2-oxotetrahydrofuran-3-yl)nicotinamide], the IC50 is 74.5 nM.
In the case of `CCOC(=O)CC(NC(=O)c1ccc(-c2cccc(OC)c2)nc1)c1ccc(Cl)cc1` (centres unmarked) [Example 334, Ethyl 3-(4-chlorophenyl)-3-({[6-(3-methoxyphenyl)pyridin-3-yl]cabonyl}amino)propanoate], the IC50 was at least 1000 nM.
For `O=C(NCc1ccc(Br)cc1)c1ccc(-c2ccccc2)nc1` [Example 513, N-(4-Bromobenzyl)-6-phenylnicotinamide], the IC50 was found to be 8.9 nM.
As for `COc1ccc(CNC(=O)c2cnc(-c3cccc(F)c3)c(Cl)c2)cc1OC` [Example 545, 5-Chloro-N-(3,4-dimethoxybenzyl)-6-(3-fluorophenyl)nicotinamide], the IC50 worked out at 14.2 nM.
On to `Cc1ccc(CNC(=O)c2ccc(-c3cccc(F)c3)nc2)cc1` [Example 404, 6-(3-Fluorophenyl)-N-(4-methylbenzyl)nicotinamide], for which the IC50 was 17.4 nM.
On to `CCN1CCCC(CNC(=O)c2ccc(-c3cccc(F)c3)nc2)C1` (centres unmarked) [Example 114, N-[(1-Ethylpiperidin-3-yl)methyl]-6-(3-fluorophenyl)nicotinamide], for which the IC50 came to 236 nM.
Consider `O=C(NCCc1ccncc1)c1ccc(-c2cccc(F)c2)nc1` [Example 185, 6-(3-Fluorophenyl)-N-(2-pyridin-4-ylethyl)nicotinamide], for which the IC50 worked out at 8.99 nM.
For the molecule `O=C(NCCCN1CCOCC1)c1ccc(-c2cccc(F)c2)nc1` [Example 39, 6-(3-Fluorophenyl)-N-(3-morpholin-4-ylpropyl)nicotinamide], the IC50 is 42.8 nM.
Take `O=C(NCC1CN(Cc2ccccn2)C(=O)CO1)c1ccc(-c2cccc(F)c2)nc1` (centres unmarked) [Example 67, 6-(3-Fluorophenyl)-N-{[5-oxo-4-(pyridin-2-ylmethyl)morpholin-2-yl]methyl}nicotinamide]: the IC50 came to 31.9 nM.
As for “6-(3-Fluorophenyl)-N-{[1- (2-methoxyethyl)piperidin- 3-yl]methyl}nicotinamide [Example 438]”, the IC50 is 374 nM.
